Laboratory results reported in patent US5965106A, “In vivo binding pair pretargeting” (PerImmune Holdings, Inc., priority 1995, dated 1999).

Legend:
rhDHFR [1] = experiment: Inhibition of rhDHFR by MTX and DTPA-MTX (dihydrofolate reduction, A340); assay type: biochemical, human; settings: 1×10^-8 M and 5×10^-9 M inhibitor concentration, 22° C., pH 7.5
Description: Dihydrofolate reductase concentrations of 10^-7 -10^-9 M are easily assayed by monitoring the time dependent decrease in A340 caused by the reduction of dihydrofolate and the oxidation of the cofactor nicotinadenine dinucleotide phosphate (NADPH). The assay is performed at 22° C. (room temperature) in 50 mM Tris, pH 7.5 and 60 μM NADPH and initiated by adding dihydrofolate to 50 μM. One enzyme unit is equivalent to the amount of enzyme required to reduce 1 μmole of dihydrofolate to 1 μmole tetrahydrofolate in 1 min. at 22° C. and can be quantitated using an extinction coefficient of 12,300 M^-1 cm^-1.
The inhibition rate of DHFR by MTX and its derivatives is determined by the decrease in the conversion of dihydrofolate to tetrahydrofolate. […] Derivatives of methotrexate are evaluated by comparing inhibition rates to the inhibition rate of MTX at equivalent concentrations.
The effects of modifying methotrexate with DPTA were unknown and required a comparison of the activity of equimolar concentrations of methotrexate and DTPA-MTX. […] The inhibition of rhDHFR by MTX and DTPA-MTX were then measured under the assay conditions mentioned earlier and compared.

16.88 bound rhDHFR = experiment: Inhibition of DHFR bound in an antibody-DHFR complex by MTX and DTPA-MTX, versus native rhDHFR; settings: 16.88-DHFR titrated to activity of native rhDHFR
[2] = system: wild-type recombinant human dihydrofolate reductase (rhDHFR); settings: noncovalent binding; cited from earlier work
[3] = Whole body clearance from athymic mice; assay type: in vivo, athymic nu/nu mice; settings: 50 uCi, lateral tail vein, 0.5-24 hours
Description: Clearance of the ^111 In-DTPA-MTX at a rate similar to that of ^111 In-DTPA would indicate that rapid body clearance of the portion of the conjugate not bound in tumor tissue by antibody-DHFR may be expected. Such rapid clearance would ensure that nearly all the unbound radionuclide would decay outside the body.
Three athymic nu/nu mice were injected via the lateral tail vein with 50 uCi ^111 In-DTPA-MTX in 0.5 mL 10% normal mouse serum in phosphate buffered normal saline. A second group of three animals received 50 uCi ^111 In-DTPA by the same route. All animal were examined for whole body retention of In-111 in a Capintec dose calibrator at 0.5, 1, 2, 3, 4, and 24 hours after injection.

[4] = Biodistribution and clearance in nude mice; assay type: in vivo, nude mouse
Description: In order to compare the biodistribution and clearance of ^111 In-DTPA-MTX with that of ^111 In-DTPA in the nude mouse, ^111 In-DTPA-MTX is administered at a dose of 9 μg and 8 μCi and ^111 In-DTPA is administered at a dose of 9 μg and 7 μCi by intravenous injection into the lateral tail vein. Animals are sacrificed a 1, 2, 4 and 24 hours after injection in groups of three animals per time point. […] In addition, there is low uptake of the MTX conjugate in the liver which is not seen with the labeled DTPA.

[5] = Biodistribution and clearance in rabbits; assay type: in vivo, New Zealand white rabbit; settings: rabbit
Description: In order to compare the biodistribution and clearance of ^111 In-DTPA-MTX with that of ^111 In-DTPA in the New Zealand white rabbit, approximately 140-190 μg and 120 μCi of each agent is administered to three animals each by intravenous injection in the central ear […]. One animal of each group is sacrificed at 1, 4 and 24 hours after injection.

[6] = in vivo; cited from earlier work
rhDHFR [7] = experiment: Stability of conjugated enzyme: percent DHFR activity remaining; assay type: physicochemical, human
Description: A 10-fold molar excess of the photoaffinity analog was mixed with the enzyme, and the volume adjusted to a protein concentration of 1 mg/ml using 10 mM Tris-HCl buffer (pH 7.5). The mixture was kept in ice at a 10 cm distance from the light source while photoactivation was carried out for 5 minutes with occasional stirring. An aliquot was assayed for DHFR activity before and after photoactivation. The NADP^+ -linked enzyme was purified by gel-filtration using 10 mM sodium phosphate buffer, pH 7.2, containing 20 mM NaCl. Fractions were assayed for DHFR activity before they were pooled for protein estimation (using Pierce BCA reagent) and determination of incorporation of NADP^+ moieties per enzyme molecule.
[…] Percent stability was calculated by comparing with a sample kept at 4° C.

Question: What does the source list for `CN(Cc1cnc2nc(N)nc(N)c2n1)c1ccc(C(=O)N[C@@H](CCC(=O)NNC(=O)CN(CCN(CCN(CC(=O)O)CC(=O)O)CC(=O)O)CC(=O)O)C(=O)O)cc1` [DTPA-MTX]?
Answer: inhibitory effect on dihydrofolate reduction compared with MTX (rhDHFR [1]): virtually identical to MTX inhibition; inhibition of/binding to 16.88 bound rhDHFR compared with equivalent activity of native rhDHFR (16.88 bound rhDHFR): confirmed the methotrexate data

Question: Which “protection of rhDHFR from thermal denaturation” value [2] does the source give for `NC(=O)c1ccc[n+]([C@@H]2O[C@H](COP(=O)([O-])OP(=O)(O)OC[C@H]3O[C@@H](n4cnc5c(N)ncnc54)[C@H](OP(=O)(O)O)[C@@H]3O)[C@@H](O)[C@H]2O)c1` [NADP] here?
Answer: The value was “capable of protecting”.

Question: With `O=C([O-])CN(CCN(CC(=O)[O-])CC(=O)[O-])CCN(CC(=O)[O-])CC(=O)[O-].[111In+3].[H+].[H+]` [^111 In-DTPA] as the molecule, how does the whole body clearance [3] read?
Answer: The whole body clearance was “clear from the mice at similar rates”.

Question: And the “injected dose per gram (ml) remaining in the serum” value ([4]; 1 hour post injection, i.v., 9 μg)?
Answer: Its value is “less than 0.2%”.

Question: What about the “kidney activity (clearance via urine)” value ([4]; nude mouse, all time points 1-24 hours) of the same molecule?
Answer: The value was “activity in the kidney at all time points”.

Question: And the liver uptake ([4]; nude mouse, i.v.)?
Answer: The liver uptake was “not seen”.

Question: What about the kidney activity levels ([5]; i.v.) of the same molecule?
Answer: Its kidney activity levels is “Low activity levels”.

Question: What about the “urine activity (clearance via urine)” value ([5]; i.v. 140-190 μg, 120 μCi) of the same molecule?
Answer: Its value is “high urine activity levels”.

Question: And the “clearance from the circulation” value [6]?
Answer: Its value is “clear rapidly from the circulation”.

Question: And the “retention in normal tissues” value [6]?
Answer: Its value is “little retention in normal tissues”.

Question: With `NC(=O)C1=CN([C@@H]2O[C@H](COP(=O)(O)OP(=O)(O)OC[C@H]3O[C@@H](n4cnc5c(N)ncnc54)[C@H](OP(=O)(O)O)[C@@H]3O)[C@@H](O)[C@H]2O)C=CC1` [NADPH, nicotinadenine dinucleotide phosphate] as the molecule, how does the “protection of rhDHFR from thermal denaturation” value [2] read?
Answer: Its value is “capable of protecting”.

B1: ANPAP-NADP^+ -rhDHFR: DHFR stabilized through covalent conjugation with a photoaffinity analog of NADP^+ (ANPAP-NADP) followed by photoactivation (conjugate, UniProt P00374 1-187, looked up)
Dihydrofolate reductase: MVGSLNCIVAVSQNMGIGKNGDLPWPPLRNEFRYFQRMTTTSSVEGKQNLVIMGKKTWFSIPEKNRPLKGRINLVLSRELKEPPQGAHFLSRSLDDALKLTEQPELANKVDMVWIVGGSSVYKEAMNHPGHLKLFVTRIMQDFESDTFFPEIDLEKYKLLPEYPGVLSDVQEEKGIKYKFEVYEKND
modifications: photo-crosslinked ANPAP-NADP+ analog
Question: What does the source list for B1?
Answer: Stability: percent enzyme activity remaining after incubation (rhDHFR [7]; 0 minutes, 37° C.): 100%; Stability: percent enzyme activity remaining after incubation (rhDHFR [7]; 60 minutes, 37° C.): 82%; Stability: percent enzyme activity remaining after incubation (rhDHFR [7]; 120 minutes, 37° C.): 78%; Stability: percent enzyme activity remaining after incubation (rhDHFR [7]; 180 minutes, 37° C.): 78%; Stability: percent enzyme activity remaining after incubation (rhDHFR [7]; 1080 minutes, 23° C.): 67%; Percent remaining activity following photoactivation (rhDHFR [7]; photoactivation time 5 minutes): 100%

B2: rhDHFR: recombinant human dihydrofolate reductase (protein, UniProt P00374 1-187, looked up)
Dihydrofolate reductase: MVGSLNCIVAVSQNMGIGKNGDLPWPPLRNEFRYFQRMTTTSSVEGKQNLVIMGKKTWFSIPEKNRPLKGRINLVLSRELKEPPQGAHFLSRSLDDALKLTEQPELANKVDMVWIVGGSSVYKEAMNHPGHLKLFVTRIMQDFESDTFFPEIDLEKYKLLPEYPGVLSDVQEEKGIKYKFEVYEKND
Question: For B2, which “Stability: percent enzyme activity remaining after incubation” value (rhDHFR [7]; 0 minutes, 37° C.) is on record?
Answer: Its value is 100%.

Question: What about the “Stability: percent enzyme activity remaining after incubation” value (rhDHFR [7]; 30 minutes, 37° C.) of the same molecule?
Answer: Its value is 18%.

Question: What about the “Stability: percent enzyme activity remaining after incubation” value (rhDHFR [7]; 60 minutes, 37° C.) of the same molecule?
Answer: The value was 10%.
